This is an account of results in patent US7211566B2 (Universite De Sherbrooke, priority 2003, dated 2007).

Data set [1] deals with STZ diabetic mice. The experiment in a line: Hot plate test, type-1 diabetic hyperalgesia. In kind it is in vivo. To be noted: 400 μg/kg i.p. How it is done:
(§1) Male CD-1 mice weighting between 25–30 g (Charles River Breeding Laboratory, St-Constant, QC, Canada) were used. The mice were housed four by cage with free access to food and water. They were maintained under conditions of standard lighting, (alternating 12-h light/dark cycle), temperature (22±0.5° C.) and humidity (60±10%) with food and water available at libitum. Animals were used only once in a given experiment. Experiments were conducted between 10:00 and 18:00 h.
(§2) Streptozotocin (Pharmacia & Upjohn Incorporation, Mississauga, ON, Canada) was dissolved in saline at a pH of 4.5 and administered to mice i.p. The BKB1 agonist desArg^9BK and compound c were dissolved in saline and administered to mice i.p.
(§3) Insulin-dependent diabetes mellitus (IDDM) was induced in mice using STZ. Male CD-1 mice were given a single high i.p. dose of STZ (200 mg/kg) (McEvoy et al., 1984, J Clin Invest 74, 715–722). […] Blood glucose levels were determined with an automatic analyzer (Glucometer Elite XL, Bayer Incorporation, Toronto, Ontario, Canada) using glucose oxidase/potassium ferricyanide reagent strips. […]
The hot plate test was adapted from the technique of Eddy and Leimbach (1953, J Pharmacol Exp Ther 107, 385–389). […] When the pain threshold is reached the animal starts to react by licking its hind paw or to jump, and the reaction time is recorded with a built-in timer, with a maximum cut-off time of 30 s to avoid tissue damage. […]
(§4) The effect of the selected drugs on nociception was determined by converting the hot plate, the plantar stimulation, the tail immersion or the tail flick responses from latencies into MPE (Maximum Percent Effect) according to the following equation (Bhargava and Zhao, 1996, Neuropeptides, 30, 219–223): […]
(§5) In all tests, pre-treatment latencies were determined three times with an interval of 24 h starting three days before the injection of STZ or saline and the mean was calculated in order to obtain stable pre-drug response latency. […]

The test system of data set [2] is STZ diabetic mice. The experiment in a line: Plantar stimulation test, type-1 diabetic hyperalgesia. In kind it is in vivo. How it is done:
(§6) Male CD-1 mice weighting between 25–30 g (Charles River Breeding Laboratory, St-Constant, QC, Canada) were used. The mice were housed four by cage with free access to food and water. They were maintained under conditions of standard lighting, (alternating 12-h light/dark cycle), temperature (22±0.5° C.) and humidity (60±10%) with food and water available at libitum. Animals were used only once in a given experiment. Experiments were conducted between 10:00 and 18:00 h. […]
(§7) Insulin-dependent diabetes mellitus (IDDM) was induced in mice using STZ. […] Blood glucose levels were determined with an automatic analyzer (Glucometer Elite XL, Bayer Incorporation, Toronto, Ontario, Canada) using glucose oxidase/potassium ferricyanide reagent strips. […]
In the plantar stimulation test, the method of Hargreaves et al. (Hargreaves et al., 1988, Pain, 32, 77–88) was used to access the hind-paw nociceptive withdrawal thresholds of a free moving mouse to thermal stimuli. […] Each latency value was determined from two applications of the radiant heat stimulus, separated by 1–2 min intervals, and the mean of the two measures is taken. […]
as §5

Data set [3] has as its system STZ diabetic mice. The experiment in a line: Tail immersion test, type-1 diabetic hyperalgesia. It is filed as in vivo. How it is done:
as §6, §7
The tail-immersion test was performed according to Coderre and Rollman (Coderre and Rollman, 1983, Life Sci 32, 2139–2146). […] The latency between submersion of the tail and its removal from the water by the animal was recorded, with a maximum cut-off time of 10 seconds to minimize tail skin tissue damage. […]
as §4

The subject of data set [4] is STZ diabetic mice. Put plainly: Tail flick test, type-1 diabetic hyperalgesia. It is filed as in vivo. How it is done:
as §1, §2, §3
The tail flick test of D'Amour and Smith (D'Amour and Smith, 1941, J Pharmacol Exp Ther 72, 74–79) modified for mice was used. […] The radiant light is focussed on a blackened spot in the mid region of the animal's tail (2–3 cm from the tip of the tail) and the latency between the application of the stimulation light and the flicking of the animal's tail is recorded. When the animal flicks its tail, its exposes a photocell in the apparatus immediately below the tail and the instrument is automatically stopped and the time is recorded. […]
as §4

A further data set can be described thus: blood. To be noted: rat, 37° C., up to 4 hours.
A further data set is described as follows: serum. To be noted: rat, 37° C., up to 4 hours.
The next data set can be described thus: plasma. Particulars: rat, 37° C., up to 4 hours.
Data set [5] is described as follows: human plasma as a source of aminopeptidase M (AmM). To be noted: up to 60 min.
In data set [6] the test system is angiotensin converting enzyme (ACE). The experiment in a line: Purified ACE from rabbit lungs (Sigma, St. Louis, Mo.) dissolved in PBS (50 mM, pH 7.5, containing 300 mM NaCl and 10 μM ZnCl2). Particulars: 37° C., up to 60 min.
The target of another data set is T1, BKB1 receptor (Homo sapiens, UniProt P46663).
T1 sequence (P46663 1-353): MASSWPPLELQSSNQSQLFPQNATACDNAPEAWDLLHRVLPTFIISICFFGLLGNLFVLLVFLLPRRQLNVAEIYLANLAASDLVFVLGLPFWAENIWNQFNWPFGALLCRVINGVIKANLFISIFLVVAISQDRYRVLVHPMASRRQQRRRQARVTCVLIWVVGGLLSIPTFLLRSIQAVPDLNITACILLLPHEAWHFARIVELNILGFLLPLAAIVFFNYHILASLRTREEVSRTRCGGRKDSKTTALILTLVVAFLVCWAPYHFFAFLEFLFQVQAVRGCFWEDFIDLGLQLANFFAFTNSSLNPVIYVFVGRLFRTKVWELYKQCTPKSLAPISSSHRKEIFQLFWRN
Particulars: Gobeil et al. 1996; cited from earlier work.

The subject of another data set is aminopeptidases. To be noted: cited from earlier work.
The test system of data set [7] is carboxypeptidases of the M type (CPM). To be noted: cited from earlier work.
Data set [8] concerns carboxypeptidases of the N type (CPN). Particulars: cited from earlier work.

On to desArg^9BK, for which, in the data set with STZ diabetic mice [1] (STZ diabetic mice), the “potentiation of hyperalgesic response” value came to 98%. The “change in nociceptive response” value in the data set on STZ diabetic mice [1] (control mice) and in the data set on STZ diabetic mice [2] (healthy mice) was “did not induce significant changes” throughout. In addition, the MPE was −21.03±0.75% in the data set with STZ diabetic mice [2] (STZ diabetic mice, 400 μg/kg i.p., 20 min after injection) and −19.23±0.60% in the data set on STZ diabetic mice [3] (STZ diabetic mice, i.p., 20 min after administration). Moreover, the “change in tail immersion latencies” value with STZ diabetic mice [3] (control mice) is given as “did not show significant changes”. In addition, the “potentiating effect on hyperalgesic activity” value in the data set on STZ diabetic mice [4] (STZ diabetic mice, maximal after 10 min) is listed as 48%. Besides, in the data set on STZ diabetic mice [4] (control mice, 400 μg/kg i.p.), the “change in tail flick test” value is given as “did not induce significant changes”.

“Ac-Orn[Oic^2,(α-Me)Phe^5,D-βNal^7,Ile^8]desArg^9BK”: the not cleaved in “blood” is given as >90% parent remaining after 4 hours; in “serum”, >90% parent remaining after 4 hours; in the data set “plasma”, >90% parent remaining after 4 hours; in data set [5], “Peptide metabolism 0 % (60 min)”; in [6], “Peptide metabolism 0 % (60 min)”.

Take “Lys-desArg^9BK (KRPPGFSPF; Lys - des-Arg9 Bradykinin) [BKB1 receptor agonist]”: the “potency relative to desArg^9BK” value in the data set with BKB1 receptor is 100 fold.

On to Lys Arg Pro Pro Gly Phe Ser Pro Phe Arg, for which the fragment found entry in the data set on aminopeptidases is listed as “BK”. The cleaved bond result in data set [7] and in [8] was “Phe8-Arg9” throughout.
